Measured values reported in patent publication US20230286929A1, “AROMATIC BRIDGED RING AMIDE DERIVATIVES FOR THE TREATMENT AND PROPHYLAXIS OF HEPATITIS B VIRUS INFECTION” (Hoffmann-La Roche Inc., priority 2020, published 2023).

Experiments:
Assay type in all cases: cell-based
[1] = test system: HBsAg; assay: PHH HBV natural infection assay, HBsAg (alphalisa); details: Hepatitis B virus, Hepatocyte, 72 h, read-out: HBsAg IC50
Procedure: (§1) Detailed procedures regarding primary human hepatocyte (PHH) HBV natural infection assay are described as below. One tube of frozen PHH (10 million cells) is thawed in 37° C. water bath and then transferred to 20 mL of PHH thawing medium (Sigma, InVitroGRO HT Medium, Cat. S03319) with gently mixing. The cells were then centrifuged at […] for 5 min, the supernatant was discarded and the tube was refilled with 25 mL of PHH plating medium (Sigma, InVitroGRO CP Medium, Cat. 503317). The tube was shaken very gently to re-suspend all cells. 50 μl of cells were transferred to each well 384-well collagen I coated plate with appropriate liquid handling equipment, e.g. Integra VIAFLO384 or Agilent Bravo. The cells were then cultured for 24 hours in a cell incubator. For HBV infection, after PHH attachment on the culture plate, the plating medium was removed and replenished with PHH culture medium containing HBV virus. The PHH culture medium was prepared with Dulbecco's Modified Eagle Medium (DMEM)/F12 (1:1 in volume ratio) containing 10% fetal bovine serum (Gibco, Cat. 10099141), […] (Gibco, Cat. PHG03I1L), 20 ng/mL dexamethasone (Sigma, Cat. D4902-100 mg), 250 ng/mL human recombinant insulin (Gibco, Cat. 41400045) and 100 U/mL penicillin. HBV virus at 200 genome equivalent (GE) per cell with 4% PEG8000 (Sigma, Cat. P1458) containing culture medium were added to the PHH culture medium for infection. The cells were then cultured for 24 hours in cell incubator. Then the cell culture supernatant was removed. The HBV-infected PHH were cultured with sandwich culture method with PHH culture medium containing 1% DMSO and 0.25 mg/mL matrix gel for 72 hours. The supernatant was then refreshed with PHH culture medium containing different concentrations of testing compounds for two times with 72-hour interval. At the end of treatment, the supernatant was collected for viral markers measurements, including HBsAg, HBeAg, HBV DNA and cytotoxicity. HBsAg and HBeAg were detected using alphalisa method using their specific antibodies. For HBV DNA detection, HBV DNA Quantitative Fluorescence Diagnostic Kit (Sansure Biotech Inc.) was used following the manufacture's protocol. Cytotoxicity was determined using Cell Counting Kit-8 (CCK8, Dojindo Molecular Technologies, Inc.).
(§2) The compounds of the present invention were tested for their capacity to inhibit HBsAg and HBeAg as described herein.

[2] = test system: HBeAg; assay: PHH HBV natural infection assay, HBeAg (alphalisa); details: Hepatitis B virus, Hepatocyte, 72 h, read-out: HbeAg IC50
Procedure: as §1, §2

[3] = Cytotoxicity in PHH natural infection assay (Cell Counting Kit-8); details: HBV-infected primary human hepatocytes, CCK8
Procedure: as §1

| SMILES | IC50 [1] | IC50 [2] | CC50 at 144 h [3] |
| --- | --- | --- | --- |
| CS(=O)(=O)c1cccc(C(=O)NC23CC(c4nc5cc(Cl)ccc5o4)(C2)C3)c1 [Example 22, N-[3-(5-chloro-1,3-benzoxazol-2-yl)-1-bicyclo[1.1.1]pentanyl]-3-methylsulfonyl-benzamide] | 3 µM | 2.33 µM | > 100 µM |
| O=C(NC12CC(c3nc4cc(Cl)ccc4o3)(C1)C2)c1ccnc(C(F)(F)F)c1 [Example 23, N-[3-(5-chloro-1,3-benzoxazol-2-yl)-1-bicyclo[1.1.1]pentanyl]-2-(trifluoromethyl)pyridine-4-carboxamide] | 2.05 µM | 1.7 µM | 96.9 µM |
| O=C(NC12CC(c3nc4cc(Cl)ccc4o3)(C1)C2)c1cncc(C(F)(F)F)c1 [Example 24, N-[3-(5-chloro-1,3-benzoxazol-2-yl)-1-bicyclo[1.1.1]pentanyl]-5-(trifluoromethyl)pyridine-3-carboxamide] | 5.23 µM | 8.82 µM | > 100 µM |
| O=C(NC12CC(c3nc4cc(Cl)ccc4o3)(C1)C2)c1ccc(C(F)(F)F)nc1 [Example 25, N-[3-(5-chloro-1,3-benzoxazol-2-yl)-1-bicyclo[1.1.1]pentanyl]-6-(trifluoromethyl)pyridine-3-carboxamide] | 8.71 µM | 4.36 µM | > 100 µM |
| O=C(NC12CC(c3nc4cc(Cl)ccc4o3)(C1)C2)c1cnc(C(F)(F)F)nc1 [Example 26, N-[3-(5-chloro-1,3-benzoxazol-2-yl)-1-bicyclo[1.1.1]pentanyl]-2-(trifluoromethyl)pyrimidine-5-carboxamide] | 6.29 µM | 3.67 µM | 88.2 µM |
| O=C(NC12CC(c3nc4cc(Cl)ccc4o3)(C1)C2)c1ccc(C(F)(F)F)nn1 [Example 27, N-[3-(5-chloro-1,3-benzoxazol-2-yl)-1-bicyclo[1.1.1]pentanyl]-6-(trifluoromethyl)pyridazine-3-carboxamide] | 3.85 µM | 1.12 µM | > 100 µM |
| O=C(NC12CC(c3nc4cc(Cl)ccc4o3)(C1)C2)c1cc(Cl)ccc1Cl [Example 28, 2,5-dichloro-N-[3-(5-chloro-1,3-benzoxazol-2-yl)-1-bicyclo[1.1.1]pentanyl]benzamide] | 9.97 µM | 10.1 µM | > 100 µM |
| CS(=N)(=O)c1cccc(C(=O)NC23CC(c4nc5cc(Cl)ccc5o4)(C2)C3)c1 (stereo not drawn) [Example 29, N-[3-(5-chloro-1,3-benzoxazol-2-yl)-1-bicyclo[1.1.1]pentanyl]-3-(methylsulfonimidoyl)benzamide] | 3.85 µM | 3.06 µM | > 100 µM |
| O=C(NC12CC(c3nc4cc(Cl)ccc4o3)(C1)C2)C1CC2(C1)CS(=O)(=O)C2 [Example 30, N-[3-(5-chloro-1,3-benzoxazol-2-yl)-1-bicyclo[1.1.1]pentanyl]-2,2-dioxo-2lambda6-thiaspiro[3.3]heptane-6-carboxamide] | 9.82 µM | 7.77 µM | > 100 µM |
| CCCC(=O)NS(=O)(=O)c1ccc(C(=O)NC23CC(c4nc5cc(Cl)ccc5o4)(C2)C3)o1 [Example 31, 5-(butanoylsulfamoyl)-N-[3-(5-chloro-1,3-benzoxazol-2-yl)-1-bicyclo[1.1.1]pentanyl]furan-2-carboxamide] | 3.63 µM | 4.78 µM | > 100 µM |
| CS(=O)(=O)c1ccc(C(=O)NC23CC(c4nc5ccc(Cl)cc5o4)(C2)C3)o1 [Example 32, N-[3-(6-chloro-1,3-benzoxazol-2-yl)-1-bicyclo[1.1.1]pentanyl]-5-methylsulfonyl-furan-2-carboxamide] | 5.67 µM | 3.46 µM | > 100 µM |
| O=C(NC12CC(c3nc4ccc(Cl)cc4o3)(C1)C2)c1ccc(S(=O)(=O)C2CC2)o1 [Example 33, N-[3-(6-chloro-1,3-benzoxazol-2-yl)-1-bicyclo[1.1.1]pentanyl]-5-cyclopropylsulfonyl-furan-2-carboxamide] | 0.792 µM | 0.58 µM | > 100 µM |
| O=C(NC12CC(c3nc4ccc(Cl)cc4o3)(C1)C2)c1ccc(S(=O)(=O)CC2CC2)o1 [Example 34, N-[3-(6-chloro-1,3-benzoxazol-2-yl)-1-bicyclo[1.1.1]pentanyl]-5-(cyclopropylmethylsulfonyl)furan-2-carboxamide] | 3.54 µM | 2.79 µM | 95.4 µM |
| CS(=N)(=O)c1ccc(C(=O)NC23CC(c4nc5ccc(Cl)cc5o4)(C2)C3)o1 (stereo not drawn) [Example 35, N-[3-(6-chloro-1,3-benzoxazol-2-yl)-1-bicyclo[1.1.1]pentanyl]-5-(methylsulfonimidoyl)furan-2-carboxamide] | 4.29 µM | 3.51 µM | > 100 µM |
| CS(=O)(=O)c1cccc(C(=O)NC23CC(c4nc5ccc(Cl)cc5o4)(C2)C3)c1 [Example 36, N-[3-(6-chloro-1,3-benzoxazol-2-yl)-1-bicyclo[1.1.1]pentanyl]-3-methylsulfonyl-benzamide] | 2.25 µM | 2.5 µM | > 100 µM |
| O=C(NC12CC(c3nc4ccc(Cl)cc4o3)(C1)C2)c1ccnc(C(F)(F)F)c1 [Example 37, N-[3-(6-chloro-1,3-benzoxazol-2-yl)-1-bicyclo[1.1.1]pentanyl]-2-(trifluoromethyl)pyridine-4-carboxamide] | 4.17 µM | 3.63 µM | > 100 µM |
| O=C(NC12CC(c3nc4ccc(Cl)cc4o3)(C1)C2)c1ccnc(S(=O)(=O)C2CC2)c1 [Example 38, N-[3-(6-chloro-1,3-benzoxazol-2-yl)-1-bicyclo[1.1.1]pentanyl]-2-cyclopropylsulfonyl-pyridine-4-carboxamide] | 6.65 µM | 4.48 µM | > 10 µM |
| CS(=O)(=O)Cc1ccc(C(=O)NC23CC(c4nc5ccc(Cl)cc5o4)(C2)C3)o1 [Example 39, N-[3-(6-chloro-1,3-benzoxazol-2-yl)-1-bicyclo[1.1.1]pentanyl]-5-(methylsulfonylmethyl)furan-2-carboxamide] | 0.648 µM | 0.75 µM | > 100 µM |
| CS(=N)(=O)Cc1ccc(C(=O)NC23CC(c4nc5ccc(Cl)cc5o4)(C2)C3)o1 (stereo not drawn) [Example 40, N-[3-(6-chloro-1,3-benzoxazol-2-yl)-1-bicyclo[1.1.1]pentanyl]-5-[(methylsulfonimidoyl)methyl]furan-2-carboxamide] | 6.99 µM | 4.07 µM | > 100 µM |
| CS(=O)(=O)Cc1ccc(C(=O)NC23CC(c4nc5cc(Cl)cnc5o4)(C2)C3)o1 [Example 41, N-[3-(6-chlorooxazolo[5,4-b]pyridin-2-yl)-1-bicyclo[1.1.1]pentanyl]-5-(methylsulfonylmethyl)furan-2-carboxamide] | 5.7 µM | 6.21 µM | > 100 µM |
| O=C(NC12CC(c3nc4cc(Cl)cnc4o3)(C1)C2)c1ccnc(C(F)(F)F)c1 [Example 42, N-[3-(6-chlorooxazolo[5,4-b]pyridin-2-yl)-1-bicyclo[1.1.1]pentanyl]-2-(trifluoromethyl)pyridine-4-carboxamide] | 8.83 µM | 10.6 µM | 92 µM |
| CS(=O)(=O)Cc1ccc(C(=O)NC23CC(c4nc5cnc(Cl)cc5o4)(C2)C3)o1 [Example 43, N-[3-(6-chlorooxazolo[4,5-c]pyridin-2-yl)-1-bicyclo[1.1.1]pentanyl]-5-(methylsulfonylmethyl)furan-2-carboxamide] | 7.62 µM | 5.55 µM | > 10 µM |
| CS(=O)(=O)c1ccc(C(=O)NC23CC(c4nc5cccc(Cl)c5o4)(C2)C3)o1 [Example 44, N-[3-(7-chloro-1,3-benzoxazol-2-yl)-1-bicyclo[1.1.1]pentanyl]-5-methylsulfonyl-furan-2-carboxamide] | 8.93 µM | 3.1 µM | > 100 µM |
| CS(=O)(=O)c1ccc(C(=O)NC23CC(c4nc5ccc(F)cc5o4)(C2)C3)o1 [Example 45, N-[3-(6-fluoro-1,3-benzoxazol-2-yl)-1-bicyclo[1.1.1]pentanyl]-5-methylsulfonyl-furan-2-carboxamide] | 8.63 µM | 4.48 µM | > 100 µM |
| CS(=O)(=O)c1ccc(C(=O)NC23CCC(c4nc5cc(Cl)ccc5o4)(CC2)C3)o1 [Example 46, N-[4-(5-chloro-1,3-benzoxazol-2-yl)norbornan-1-yl]-5-methylsulfonyl-furan-2-carboxamide] | 7.15 µM | 4.48 µM | 76.6 µM |
